In ChEMBL document CHEMBL4387773, “Identification of potent, selective and orally bioavailable phenyl ((R)-3-phenylpyrrolidin-3-yl)sulfone analogues as RORγt inverse agonists” (Bioorg Med Chem Lett, 2019):

Target: T1, PXR (Homo sapiens, UniProt O75469)
T1 sequence (O75469 whole entry): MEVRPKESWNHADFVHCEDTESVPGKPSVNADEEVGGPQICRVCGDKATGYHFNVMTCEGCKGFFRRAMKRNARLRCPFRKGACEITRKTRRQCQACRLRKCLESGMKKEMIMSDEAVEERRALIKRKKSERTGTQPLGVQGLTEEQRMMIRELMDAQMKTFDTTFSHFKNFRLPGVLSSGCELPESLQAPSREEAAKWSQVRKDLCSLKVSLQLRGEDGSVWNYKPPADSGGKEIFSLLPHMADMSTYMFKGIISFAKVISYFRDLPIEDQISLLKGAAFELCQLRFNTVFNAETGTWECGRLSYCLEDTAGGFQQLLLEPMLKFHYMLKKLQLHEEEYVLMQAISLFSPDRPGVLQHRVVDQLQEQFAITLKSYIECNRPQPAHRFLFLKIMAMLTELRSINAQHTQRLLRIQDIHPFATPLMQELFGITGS
Test: (§1) Transactivation of PXR (unknown origin) expressed in human HepG2 cells assessed as maximum receptor activation response relative to control
Format: cell-based
Conditions: human HepG2 cells that express PXR, read-out: %max

Row | Emax [%] | SMILES
1 | 7 | COC[C@]1(C(=O)N2CC[C@](c3ccc(C(F)(C(F)(F)F)C(F)(F)F)cc3)(S(=O)(=O)c3ccc(F)cc3)C2)CC[C@H](C(=O)O)CC1

Target: T2, Nuclear receptor subfamily 1 group I member 2 (Homo sapiens, UniProt O75469)
T2 sequence (O75469 whole entry): T1 sequence (O75469 whole entry)
Test: as §1
Format: cell-based
Conditions: hepg2

Row | %max [%] | SMILES
2 | 3 | O=C1NC(=O)C2(CCC(C(=O)N3CC[C@](c4ccc(C(F)(C(F)(F)F)C(F)(F)F)cc4)(S(=O)(=O)c4ccc(F)cc4)C3)CC2)N1 (stereo in doubt; 25)
3 | 9 | O=C(O)C1CCC(O)(C(=O)N2CC[C@](c3ccc(C(F)(C(F)(F)F)C(F)(F)F)cc3)(S(=O)(=O)c3ccc(F)cc3)C2)CC1 (stereo in doubt; 12)
4 | 28 | O=C1NC(=O)C2(CCC(C(=O)N3CC[C@](c4ccc(C(F)(C(F)(F)F)C(F)(F)F)cc4)(S(=O)(=O)c4ccc(F)cc4)C3)CC2)N1 (stereo in doubt; 24)

Target: T3, Nuclear receptor ROR-beta (Homo sapiens, UniProt Q92753)
T3 sequence (Q92753 whole entry): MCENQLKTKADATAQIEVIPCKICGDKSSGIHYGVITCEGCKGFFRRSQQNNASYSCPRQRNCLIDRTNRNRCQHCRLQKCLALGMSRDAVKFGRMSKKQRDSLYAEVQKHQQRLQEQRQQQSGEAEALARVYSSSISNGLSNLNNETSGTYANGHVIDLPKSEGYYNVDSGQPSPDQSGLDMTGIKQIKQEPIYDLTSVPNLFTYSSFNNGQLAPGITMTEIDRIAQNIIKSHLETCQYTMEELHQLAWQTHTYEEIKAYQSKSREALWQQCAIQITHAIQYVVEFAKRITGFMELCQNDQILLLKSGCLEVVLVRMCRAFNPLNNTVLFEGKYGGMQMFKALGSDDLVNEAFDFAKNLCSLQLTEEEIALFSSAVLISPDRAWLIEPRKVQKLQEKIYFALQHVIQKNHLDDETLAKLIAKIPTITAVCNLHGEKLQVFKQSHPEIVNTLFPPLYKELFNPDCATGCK
Test: Inverse agonist activity at human Gal4-fused RORbeta LBD (200 to 559 residues) expressed in human Jurkat cells measured after 18 hrs by steady-glo luciferase reporter gene assay
Format: cell-based
Conditions: not given

Row | EC50 [µM] | SMILES
5 | > 40 | O=C(O)C1CCC(O)(C(=O)N2CC[C@](c3ccc(C(F)(C(F)(F)F)C(F)(F)F)cc3)(S(=O)(=O)c3ccc(F)cc3)C2)CC1 (stereo in doubt; 12)
6 | > 40 | O=C1NC(=O)C2(CCC(C(=O)N3CC[C@](c4ccc(C(F)(C(F)(F)F)C(F)(F)F)cc4)(S(=O)(=O)c4ccc(F)cc4)C3)CC2)N1 (stereo in doubt; 24)
7 | > 40 | COC[C@]1(C(=O)N2CC[C@](c3ccc(C(F)(C(F)(F)F)C(F)(F)F)cc3)(S(=O)(=O)c3ccc(F)cc3)C2)CC[C@H](C(=O)O)CC1

Same assay, conditions: jurkat

Row | EC50 [µM] | SMILES
8 | > 40 | O=C1NC(=O)C2(CCC(C(=O)N3CC[C@](c4ccc(C(F)(C(F)(F)F)C(F)(F)F)cc4)(S(=O)(=O)c4ccc(F)cc4)C3)CC2)N1 (stereo in doubt; 25)

Tested on: not listed separately
Test: Stability in human liver microsomes assessed as parent compound remaining after 10 mins
Format: ADME, Microsome
Conditions: liver microsomes, read-out: Stability

Row | remaining at 10 min [%] | SMILES
9 | 100 | O=C(O)C1CCC(O)(C(=O)N2CC[C@](c3ccc(C(F)(C(F)(F)F)C(F)(F)F)cc3)(S(=O)(=O)c3ccc(F)cc3)C2)CC1 (stereo in doubt; 12)
10 | 84 | O=C1NC(=O)C2(CCC(C(=O)N3CC[C@](c4ccc(C(F)(C(F)(F)F)C(F)(F)F)cc4)(S(=O)(=O)c4ccc(F)cc4)C3)CC2)N1 (stereo in doubt; 24)
11 | 100 | COC[C@]1(C(=O)N2CC[C@](c3ccc(C(F)(C(F)(F)F)C(F)(F)F)cc3)(S(=O)(=O)c3ccc(F)cc3)C2)CC[C@H](C(=O)O)CC1

Same assay, conditions: microsomes, 10 min

Row | Stability [%] | SMILES
12 | 93 | O=C1NC(=O)C2(CCC(C(=O)N3CC[C@](c4ccc(C(F)(C(F)(F)F)C(F)(F)F)cc4)(S(=O)(=O)c4ccc(F)cc4)C3)CC2)N1 (stereo in doubt; 25)

Target: T4, Oxysterols receptor LXR-alpha (Homo sapiens, UniProt Q13133)
T4 sequence (Q13133 whole entry): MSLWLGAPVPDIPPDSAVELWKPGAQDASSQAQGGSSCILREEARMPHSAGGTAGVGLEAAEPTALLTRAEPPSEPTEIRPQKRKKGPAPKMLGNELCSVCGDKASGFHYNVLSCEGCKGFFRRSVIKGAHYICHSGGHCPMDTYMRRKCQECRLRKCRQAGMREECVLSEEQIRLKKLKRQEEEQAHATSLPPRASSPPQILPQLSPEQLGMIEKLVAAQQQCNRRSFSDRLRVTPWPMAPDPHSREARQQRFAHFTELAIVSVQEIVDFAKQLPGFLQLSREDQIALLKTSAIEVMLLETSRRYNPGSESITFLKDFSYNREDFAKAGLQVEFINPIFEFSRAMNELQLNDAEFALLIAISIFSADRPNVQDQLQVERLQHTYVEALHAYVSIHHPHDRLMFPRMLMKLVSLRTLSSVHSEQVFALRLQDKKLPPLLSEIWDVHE
Test: Transactivation of human GAL4-fused LXRalpha expressed in African green monkey CV1 cells
Format: cell-based
Conditions: not given

Row | EC50 [µM] | SMILES
13 | > 7.5 | O=C1NC(=O)C2(CCC(C(=O)N3CC[C@](c4ccc(C(F)(C(F)(F)F)C(F)(F)F)cc4)(S(=O)(=O)c4ccc(F)cc4)C3)CC2)N1 (stereo in doubt; 25)
14 | > 7.5 | O=C(O)C1CCC(O)(C(=O)N2CC[C@](c3ccc(C(F)(C(F)(F)F)C(F)(F)F)cc3)(S(=O)(=O)c3ccc(F)cc3)C2)CC1 (stereo in doubt; 12)
15 | > 7.5 | O=C1NC(=O)C2(CCC(C(=O)N3CC[C@](c4ccc(C(F)(C(F)(F)F)C(F)(F)F)cc4)(S(=O)(=O)c4ccc(F)cc4)C3)CC2)N1 (stereo in doubt; 24)
16 | > 7.5 | COC[C@]1(C(=O)N2CC[C@](c3ccc(C(F)(C(F)(F)F)C(F)(F)F)cc3)(S(=O)(=O)c3ccc(F)cc3)C2)CC[C@H](C(=O)O)CC1

Target: T2, Nuclear receptor subfamily 1 group I member 2
Test: Transactivation of PXR (unknown origin) expressed in human HepG2 cells
Format: cell-based
Conditions: not given

Row | EC50 [µM] | SMILES
17 | > 50 | O=C1NC(=O)C2(CCC(C(=O)N3CC[C@](c4ccc(C(F)(C(F)(F)F)C(F)(F)F)cc4)(S(=O)(=O)c4ccc(F)cc4)C3)CC2)N1 (stereo in doubt; 25)
18 | > 50 | O=C(O)C1CCC(O)(C(=O)N2CC[C@](c3ccc(C(F)(C(F)(F)F)C(F)(F)F)cc3)(S(=O)(=O)c3ccc(F)cc3)C2)CC1 (stereo in doubt; 12)
19 | > 14 | O=C1NC(=O)C2(CCC(C(=O)N3CC[C@](c4ccc(C(F)(C(F)(F)F)C(F)(F)F)cc4)(S(=O)(=O)c4ccc(F)cc4)C3)CC2)N1 (stereo in doubt; 24)
20 | > 50 | COC[C@]1(C(=O)N2CC[C@](c3ccc(C(F)(C(F)(F)F)C(F)(F)F)cc3)(S(=O)(=O)c3ccc(F)cc3)C2)CC[C@H](C(=O)O)CC1

Target: T5, Nuclear receptor ROR-alpha (Homo sapiens, UniProt P35398)
T5 sequence (P35398 whole entry): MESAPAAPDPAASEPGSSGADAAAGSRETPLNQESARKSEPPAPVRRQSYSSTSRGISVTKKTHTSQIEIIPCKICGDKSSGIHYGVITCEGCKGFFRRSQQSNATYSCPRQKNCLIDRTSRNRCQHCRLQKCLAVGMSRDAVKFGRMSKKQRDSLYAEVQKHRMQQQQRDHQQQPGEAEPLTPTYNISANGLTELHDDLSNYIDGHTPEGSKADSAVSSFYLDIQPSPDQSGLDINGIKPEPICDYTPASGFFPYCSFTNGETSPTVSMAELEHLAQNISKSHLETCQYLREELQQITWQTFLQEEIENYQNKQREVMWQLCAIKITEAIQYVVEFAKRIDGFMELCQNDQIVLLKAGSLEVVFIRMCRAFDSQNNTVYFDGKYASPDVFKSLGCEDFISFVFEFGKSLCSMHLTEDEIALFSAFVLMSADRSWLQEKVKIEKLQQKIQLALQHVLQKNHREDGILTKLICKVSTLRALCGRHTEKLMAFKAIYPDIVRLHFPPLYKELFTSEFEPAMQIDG
Test: Inverse agonist activity at human Gal4-fused RORalpha LBD (272 to 556 residues) expressed in human Jurkat cells measured after 18 hrs by steady-glo luciferase reporter gene assay
Format: cell-based
Conditions: not given

Row | EC50 [µM] | SMILES
21 | > 40 | O=C(O)C1CCC(O)(C(=O)N2CC[C@](c3ccc(C(F)(C(F)(F)F)C(F)(F)F)cc3)(S(=O)(=O)c3ccc(F)cc3)C2)CC1 (stereo in doubt; 12)
22 | > 40 | O=C1NC(=O)C2(CCC(C(=O)N3CC[C@](c4ccc(C(F)(C(F)(F)F)C(F)(F)F)cc4)(S(=O)(=O)c4ccc(F)cc4)C3)CC2)N1 (stereo in doubt; 24)
23 | > 40 | COC[C@]1(C(=O)N2CC[C@](c3ccc(C(F)(C(F)(F)F)C(F)(F)F)cc3)(S(=O)(=O)c3ccc(F)cc3)C2)CC[C@H](C(=O)O)CC1

Same assay, conditions: jurkat

Row | EC50 [µM] | SMILES
24 | > 40 | O=C1NC(=O)C2(CCC(C(=O)N3CC[C@](c4ccc(C(F)(C(F)(F)F)C(F)(F)F)cc4)(S(=O)(=O)c4ccc(F)cc4)C3)CC2)N1 (stereo in doubt; 25)

Tested on: not listed separately
Test: Stability in mouse liver microsomes assessed as parent compound remaining after 10 mins
Format: ADME, Microsome
Conditions: liver microsomes, read-out: Stability

Row | remaining at 10 min [%] | SMILES
25 | 99 | O=C(O)C1CCC(O)(C(=O)N2CC[C@](c3ccc(C(F)(C(F)(F)F)C(F)(F)F)cc3)(S(=O)(=O)c3ccc(F)cc3)C2)CC1 (stereo in doubt; 12)
26 | 81 | O=C1NC(=O)C2(CCC(C(=O)N3CC[C@](c4ccc(C(F)(C(F)(F)F)C(F)(F)F)cc4)(S(=O)(=O)c4ccc(F)cc4)C3)CC2)N1 (stereo in doubt; 24)
27 | 88 | COC[C@]1(C(=O)N2CC[C@](c3ccc(C(F)(C(F)(F)F)C(F)(F)F)cc3)(S(=O)(=O)c3ccc(F)cc3)C2)CC[C@H](C(=O)O)CC1

Same assay, conditions: microsomes, 10 min

Row | Stability [%] | SMILES
28 | 82 | O=C1NC(=O)C2(CCC(C(=O)N3CC[C@](c4ccc(C(F)(C(F)(F)F)C(F)(F)F)cc4)(S(=O)(=O)c4ccc(F)cc4)C3)CC2)N1 (stereo in doubt; 25)

Target: T6, Oxysterols receptor LXR-beta (Homo sapiens, UniProt P55055)
T6 sequence (P55055 whole entry): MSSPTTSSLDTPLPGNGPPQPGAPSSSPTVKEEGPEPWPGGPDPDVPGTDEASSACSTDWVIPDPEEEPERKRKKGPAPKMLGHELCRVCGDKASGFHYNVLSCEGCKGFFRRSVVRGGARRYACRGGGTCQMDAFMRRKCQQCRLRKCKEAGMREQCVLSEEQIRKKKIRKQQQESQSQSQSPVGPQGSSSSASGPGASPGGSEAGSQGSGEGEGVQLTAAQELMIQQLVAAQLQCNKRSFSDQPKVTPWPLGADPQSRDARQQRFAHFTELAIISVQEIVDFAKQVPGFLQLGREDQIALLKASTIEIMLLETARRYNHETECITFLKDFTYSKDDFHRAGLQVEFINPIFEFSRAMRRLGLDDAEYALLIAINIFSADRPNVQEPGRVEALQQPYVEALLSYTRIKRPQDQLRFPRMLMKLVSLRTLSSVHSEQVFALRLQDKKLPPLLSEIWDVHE
Test: Transactivation of human GAL4-fused LXRbeta expressed in African green monkey CV1 cells
Format: cell-based
Conditions: not given

Row | EC50 [µM] | SMILES
29 | > 7.5 | O=C1NC(=O)C2(CCC(C(=O)N3CC[C@](c4ccc(C(F)(C(F)(F)F)C(F)(F)F)cc4)(S(=O)(=O)c4ccc(F)cc4)C3)CC2)N1 (stereo in doubt; 25)
30 | > 7.5 | O=C(O)C1CCC(O)(C(=O)N2CC[C@](c3ccc(C(F)(C(F)(F)F)C(F)(F)F)cc3)(S(=O)(=O)c3ccc(F)cc3)C2)CC1 (stereo in doubt; 12)
31 | > 7.5 | O=C1NC(=O)C2(CCC(C(=O)N3CC[C@](c4ccc(C(F)(C(F)(F)F)C(F)(F)F)cc4)(S(=O)(=O)c4ccc(F)cc4)C3)CC2)N1 (stereo in doubt; 24)
32 | > 7.5 | COC[C@]1(C(=O)N2CC[C@](c3ccc(C(F)(C(F)(F)F)C(F)(F)F)cc3)(S(=O)(=O)c3ccc(F)cc3)C2)CC[C@H](C(=O)O)CC1
